The results in this text go back to publication doi:10.1101/2022.03.11.483894v1, “Structure and function of diadenylate cyclase DacM from Mycoplasma ovipneumoniae” (biorxiv, 2022).

The test deals with T1, DacM (Δ2-33DacM; DacM (35-203)) (Mesomycoplasma ovipneumoniae, UniProt A0A014M399).
T1 construct: gene MOVI_0530; N-terminal transmembrane helix removed (Δ2-33); codon-optimized gene in pET28b, E. coli BL21(DE3), N-terminal His6 fusion; homodimer in crystal
T1 sequence (A0A014M399 35-203): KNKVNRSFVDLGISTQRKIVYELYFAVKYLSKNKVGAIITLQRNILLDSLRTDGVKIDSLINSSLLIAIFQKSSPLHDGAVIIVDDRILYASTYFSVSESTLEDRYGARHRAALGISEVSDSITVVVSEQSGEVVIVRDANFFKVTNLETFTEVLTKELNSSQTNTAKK
The test can be described thus: X-ray crystal structure of complex, […] Å; also LC-MS detection of c-di-AMP formation. The format is binding. The settings on record: activity assay: 2 μM enzyme, 10 mM MgCl2, Tris-HCl pH 7.5, 37 °C, 1 h.

The structures appear in SMILES notation.

As to `Nc1ncnc2c1ncn2[C@@H]1O[C@H](COP(=O)(O)OP(=O)(O)O)[C@@H](O)[C@H]1O` [ADP], the “X-ray crystal structure of complex, 1.9 Å; also LC-MS detection of c-di-AMP form” value (crystal grown with ATP as additive, 16 °C, HEPES pH 7.5, active site of protomer B, 0.1 mM ADP) is “active site of the second DacM protomer (protomer B), was consistent with a bound molecule of ADP”.
Turning to `Nc1ncnc2c1ncn2[C@@H]1O[C@H](COP(=O)(O)OP(=O)(O)OP(=O)(O)O)[C@@H](O)[C@H]1O` [ATP], the “X-ray crystal structure of complex, 1.9 Å; also LC-MS detection of c-di-AMP form” value (crystal: 16 °C, HEPES pH 7.5, active site of protomer A, 0.1 mM ATP) is recorded as “an ATP molecule, which was clearly bound in the active site of one DacM protomer”.
